PMC6842095 (Neuropharmacology, 2019)
Where “and” joins values, the source holds several entries; their conditions need not be identical. Equal entries are not always repeated. Where two headings read alike, the source gives them in different places.

How the values were obtained:
[1] = molecular target: T1, α4 GREFP β2 AChR (Homo sapiens, UniProt P17787+P43681, I229P/K186G/K222F/T220E/Y218R); assay type: binding
[2] = molecular target: T2, α4 GREFP β4 AChR (Homo sapiens, UniProt P30926+P43681, I229P/K186G/K222F/T220E/Y218R)
T2 sequence (P30926 22-498): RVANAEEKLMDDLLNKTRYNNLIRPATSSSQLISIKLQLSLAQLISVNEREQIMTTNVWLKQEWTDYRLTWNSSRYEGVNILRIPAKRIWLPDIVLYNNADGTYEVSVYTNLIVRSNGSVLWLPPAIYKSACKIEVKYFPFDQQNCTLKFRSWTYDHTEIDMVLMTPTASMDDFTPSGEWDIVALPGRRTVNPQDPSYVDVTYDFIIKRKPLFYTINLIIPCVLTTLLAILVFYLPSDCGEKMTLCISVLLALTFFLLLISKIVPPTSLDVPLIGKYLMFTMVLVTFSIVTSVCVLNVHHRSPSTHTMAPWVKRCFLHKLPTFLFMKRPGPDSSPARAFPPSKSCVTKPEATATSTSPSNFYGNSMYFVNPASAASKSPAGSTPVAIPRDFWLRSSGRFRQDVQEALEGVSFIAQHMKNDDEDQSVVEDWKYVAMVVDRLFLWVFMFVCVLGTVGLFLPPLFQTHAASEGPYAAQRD
T2 sequence (P43681 29-627 K186G/Y218R/T220E/K222F/I229P): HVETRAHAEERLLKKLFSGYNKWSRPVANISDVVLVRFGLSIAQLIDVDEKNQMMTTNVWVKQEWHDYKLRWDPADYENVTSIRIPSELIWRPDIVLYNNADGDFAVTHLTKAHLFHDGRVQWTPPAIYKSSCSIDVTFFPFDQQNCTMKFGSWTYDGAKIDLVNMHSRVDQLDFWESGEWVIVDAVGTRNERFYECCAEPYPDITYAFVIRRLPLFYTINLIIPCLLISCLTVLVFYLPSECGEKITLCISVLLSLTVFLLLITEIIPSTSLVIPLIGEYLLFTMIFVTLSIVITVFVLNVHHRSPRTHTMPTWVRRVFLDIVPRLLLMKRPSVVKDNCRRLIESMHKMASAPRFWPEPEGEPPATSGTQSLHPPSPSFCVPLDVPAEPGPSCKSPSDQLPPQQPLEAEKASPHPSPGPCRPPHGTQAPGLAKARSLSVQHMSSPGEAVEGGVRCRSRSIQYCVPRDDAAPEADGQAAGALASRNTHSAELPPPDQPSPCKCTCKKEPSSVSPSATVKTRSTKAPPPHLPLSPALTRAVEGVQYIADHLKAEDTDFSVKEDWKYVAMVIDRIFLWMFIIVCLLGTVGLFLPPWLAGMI

[3] = molecular target: T3, α2 GFEP β4 AChR (Homo sapiens, UniProt P30926+Q15822, D246E/I251P/K208G/K244F)
T3 sequence (P30926 22-498, stated change not applied): as the sequence (P30926 22-498) above
T3 sequence (Q15822 27-529 K208G/K244F/D246E/I251P): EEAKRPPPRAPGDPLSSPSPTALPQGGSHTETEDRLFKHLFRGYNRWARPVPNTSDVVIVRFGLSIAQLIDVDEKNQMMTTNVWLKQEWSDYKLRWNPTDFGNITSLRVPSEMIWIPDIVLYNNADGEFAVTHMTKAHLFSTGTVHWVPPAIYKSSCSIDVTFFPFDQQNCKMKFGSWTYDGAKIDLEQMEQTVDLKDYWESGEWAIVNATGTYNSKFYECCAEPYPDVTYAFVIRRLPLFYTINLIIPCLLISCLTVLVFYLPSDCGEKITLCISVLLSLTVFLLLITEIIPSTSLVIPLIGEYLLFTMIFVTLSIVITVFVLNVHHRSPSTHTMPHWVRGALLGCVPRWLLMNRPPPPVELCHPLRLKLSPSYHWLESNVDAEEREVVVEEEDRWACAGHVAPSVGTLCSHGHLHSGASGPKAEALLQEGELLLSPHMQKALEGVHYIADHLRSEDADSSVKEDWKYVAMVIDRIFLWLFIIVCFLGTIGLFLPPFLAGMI

[4] = molecular target: T3, α2 GFEP β4 AChR; test: cell-based
[5] = molecular target: T4, α3 GFEP β4 AChR (Homo sapiens, UniProt P30926+P32297, I227P/K184G/K220F/N222E)
T4 sequence (P32297 32-505 K184G/K220F/N222E/I227P): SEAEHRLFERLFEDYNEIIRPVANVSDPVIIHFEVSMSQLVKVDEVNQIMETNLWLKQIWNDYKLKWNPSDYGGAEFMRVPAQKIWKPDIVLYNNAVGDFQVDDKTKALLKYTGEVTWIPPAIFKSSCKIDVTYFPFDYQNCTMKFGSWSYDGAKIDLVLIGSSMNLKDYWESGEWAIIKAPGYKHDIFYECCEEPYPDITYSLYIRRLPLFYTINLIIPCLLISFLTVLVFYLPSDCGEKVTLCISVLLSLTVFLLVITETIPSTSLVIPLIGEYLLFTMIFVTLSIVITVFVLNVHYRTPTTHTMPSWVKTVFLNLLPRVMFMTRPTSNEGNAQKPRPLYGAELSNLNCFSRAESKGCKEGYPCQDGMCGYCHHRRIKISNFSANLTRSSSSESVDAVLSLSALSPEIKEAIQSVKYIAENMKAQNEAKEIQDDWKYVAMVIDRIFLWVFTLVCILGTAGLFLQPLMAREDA
T4 sequence (P30926 22-498, stated change not applied): as the sequence (P30926 22-498) above

[6] = molecular target: α7 AChR (Homo sapiens, UniProt P36544); assay type: binding
Chain of α7 AChR (P36544 23-502 limits assumed): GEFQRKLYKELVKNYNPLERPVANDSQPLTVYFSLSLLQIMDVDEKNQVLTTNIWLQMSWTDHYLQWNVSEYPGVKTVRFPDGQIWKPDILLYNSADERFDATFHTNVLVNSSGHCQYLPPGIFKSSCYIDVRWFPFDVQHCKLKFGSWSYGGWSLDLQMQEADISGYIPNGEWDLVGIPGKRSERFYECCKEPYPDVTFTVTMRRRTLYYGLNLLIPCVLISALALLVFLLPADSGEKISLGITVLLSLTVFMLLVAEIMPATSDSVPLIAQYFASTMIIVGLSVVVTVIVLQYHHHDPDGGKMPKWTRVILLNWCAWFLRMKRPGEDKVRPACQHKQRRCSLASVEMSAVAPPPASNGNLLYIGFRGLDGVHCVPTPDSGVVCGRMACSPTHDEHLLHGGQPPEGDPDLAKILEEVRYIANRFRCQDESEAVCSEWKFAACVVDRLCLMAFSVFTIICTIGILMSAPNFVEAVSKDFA

[7] = molecular target: α2 GFEP β2 AChR (Homo sapiens, UniProt P17787+Q15822, D246E/I251P/K208G/K244F); assay type: binding
Chain of α2 GFEP β2 AChR (P17787 26-502 limits assumed, stated change not applied): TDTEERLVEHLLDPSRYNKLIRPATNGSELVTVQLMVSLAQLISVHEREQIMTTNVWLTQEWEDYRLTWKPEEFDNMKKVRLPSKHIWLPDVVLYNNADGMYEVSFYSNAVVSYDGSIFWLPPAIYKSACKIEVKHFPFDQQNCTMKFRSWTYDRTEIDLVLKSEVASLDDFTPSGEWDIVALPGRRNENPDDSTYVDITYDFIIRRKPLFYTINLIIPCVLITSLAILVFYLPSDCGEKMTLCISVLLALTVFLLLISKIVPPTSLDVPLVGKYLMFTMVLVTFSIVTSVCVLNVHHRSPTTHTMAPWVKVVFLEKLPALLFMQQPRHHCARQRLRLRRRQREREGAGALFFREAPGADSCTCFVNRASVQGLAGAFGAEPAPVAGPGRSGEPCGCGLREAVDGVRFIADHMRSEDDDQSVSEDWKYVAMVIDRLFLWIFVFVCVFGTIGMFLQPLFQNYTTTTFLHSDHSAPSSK
Chain of α2 GFEP β2 AChR (Q15822 27-529 K208G/K244F/D246E/I251P limits assumed, stated change not applied): as the sequence (Q15822 27-529 K208G/K244F/D246E/I251P) above

[8] = molecular target: wild type α4β2 AChR (Homo sapiens, UniProt P17787+P43681); assay type: binding
[9] = molecular target: T1, α4 GREFP β2 AChR; test: Time course of ^125I-α-BTX dissociation; assay type: binding
[10] = molecular target: T4, α3 GFEP β4 AChR; test: Time course of ^125I-α-BTX dissociation; assay type: binding
[11] = molecular target: muscle AChR (α1, β, ε, δ) (Homo sapiens, UniProt P02708+Q04844+Q07001); assay type: binding
Chain of muscle AChR (α1, β, ε, δ) (P02708 21-457 limits assumed): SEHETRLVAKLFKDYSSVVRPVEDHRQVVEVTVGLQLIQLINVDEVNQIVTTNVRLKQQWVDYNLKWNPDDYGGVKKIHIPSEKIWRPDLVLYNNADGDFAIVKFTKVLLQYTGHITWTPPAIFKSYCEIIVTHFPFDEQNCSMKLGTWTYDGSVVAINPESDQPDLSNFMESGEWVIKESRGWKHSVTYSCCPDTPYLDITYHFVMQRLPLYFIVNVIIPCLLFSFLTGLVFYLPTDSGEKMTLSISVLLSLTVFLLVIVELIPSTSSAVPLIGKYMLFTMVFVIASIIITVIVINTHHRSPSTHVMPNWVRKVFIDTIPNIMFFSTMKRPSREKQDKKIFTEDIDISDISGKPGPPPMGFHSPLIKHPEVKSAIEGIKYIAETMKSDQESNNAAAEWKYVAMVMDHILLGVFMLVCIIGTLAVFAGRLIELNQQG
Chain of muscle AChR (α1, β, ε, δ) (Q04844 21-493 limits assumed): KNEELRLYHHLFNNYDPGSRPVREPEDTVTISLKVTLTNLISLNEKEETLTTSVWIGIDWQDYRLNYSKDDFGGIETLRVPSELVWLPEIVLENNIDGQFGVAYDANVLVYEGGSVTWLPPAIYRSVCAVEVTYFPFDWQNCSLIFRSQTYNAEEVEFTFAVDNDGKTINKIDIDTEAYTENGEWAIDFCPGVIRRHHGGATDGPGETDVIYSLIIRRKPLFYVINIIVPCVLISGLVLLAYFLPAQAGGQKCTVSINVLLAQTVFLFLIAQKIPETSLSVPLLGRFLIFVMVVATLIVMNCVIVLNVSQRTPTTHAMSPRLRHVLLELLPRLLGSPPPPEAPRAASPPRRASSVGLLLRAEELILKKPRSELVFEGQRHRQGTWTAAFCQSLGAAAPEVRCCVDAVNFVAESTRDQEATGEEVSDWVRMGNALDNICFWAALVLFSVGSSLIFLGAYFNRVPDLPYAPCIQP
Chain of muscle AChR (α1, β, ε, δ) (Q07001 22-517 limits assumed): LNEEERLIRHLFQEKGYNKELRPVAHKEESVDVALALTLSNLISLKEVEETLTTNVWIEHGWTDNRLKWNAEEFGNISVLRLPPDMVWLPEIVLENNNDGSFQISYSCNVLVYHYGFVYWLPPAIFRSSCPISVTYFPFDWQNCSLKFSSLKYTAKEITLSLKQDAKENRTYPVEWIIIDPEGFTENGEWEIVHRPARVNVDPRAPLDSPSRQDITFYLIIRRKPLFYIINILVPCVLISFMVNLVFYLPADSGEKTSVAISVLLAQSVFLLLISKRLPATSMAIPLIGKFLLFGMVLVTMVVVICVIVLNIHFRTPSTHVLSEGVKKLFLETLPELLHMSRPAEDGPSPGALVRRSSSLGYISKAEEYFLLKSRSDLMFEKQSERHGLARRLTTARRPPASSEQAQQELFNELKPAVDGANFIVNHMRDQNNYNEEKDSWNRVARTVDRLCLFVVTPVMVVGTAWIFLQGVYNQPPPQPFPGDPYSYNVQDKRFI

[12] = molecular target: T3, α2 GFEP β4 AChR; test: Time course of ^125I-α-BTX dissociation; assay type: binding
[13] = molecular target: T2, α4 GREFP β4 AChR; test: Time course of ^125I-α-BTX dissociation; assay type: binding

T1 sequence (P43681 29-627 K186G/Y218R/T220E/K222F/I229P): as the sequence (P43681 29-627 K186G/Y218R/T220E/K222F/I229P) above
T1 sequence (P17787 26-502, stated change not applied): as the sequence (P17787 26-502 limits assumed, stated change not applied) above

## CC(=O)OCC[N+](C)(C)C [ACh, Acetylcholine]
[1]
  nH (Hill coefficient): 0.81 ± 0.07

## Clc1ccc(C2CC3CCC2N3)cn1 (racemic) [Epibatidine, (±) epibatidine]
[1]; α4 GREFP + β2, ± S.E.
  nH (Hill coefficient): 1.3 ± 0.1

## CN1CCC[C@H]1c1cccnc1 [Nicotine, (−)nicotine]
[2]
  nH (Hill coefficient): 0.80 ± 0.1
[1]
  nH (Hill coefficient): 1.4 ± 0.1
[3]
  nH (Hill coefficient): 0.96 ± 0.1
[4]
  Kd: 0.21 µM
[5]
  nH (Hill coefficient): 0.75 ± 0.1

## α-bungarotoxin [α-BTX]
[6]
  Half-life: 133 h
  kdissoc: 1.5 ± 0.3 × 10^−6 s^−1
[7]
  Half-life: 6.0 h
  kdissoc: 3.2 ± 0.3 × 10^−5 s^−1
[8]
  affinity for the toxin (ratio of total to nonspecific binding close to one): negligible affinity
[9]
  Half-life: 12.6 h
  dissociation constant from ratio of dissociation to association rate constants: 0.3 nM
  kdissoc: 1.5 × 10^−5 s^−1 and 1.5 ± 0.2 × 10^−5 s^−1
[10]
  Half-life: 77 h
  kdissoc: 2.5 ± 0.9 × 10^−6 s^−1
[11]
  Half-life: 5.4 h
  kdissoc: 3.5 ± 0.4 × 10^−5 s^−1
[12]
  Half-life: 9.6 h
  kdissoc: 2.0 ± 0.3 × 10^−5 s^−1
[13]
  Half-life: 19 h
  kdissoc: 1.0 ± 0.1 × 10^−5 s^−1
